Data from ChEMBL document CHEMBL5331051, “Cationic, amphipathic small molecules based on a triazine-piperazine-triazine scaffold as a new class of antimicrobial agents” (Eur J Med Chem, 2022).
In brackets after ≈: the same amount, converted by molar mass. Activity calls are given as the source filed them. The calls are words filed in the database; no cut-off is given here.

What was measured:
[1] = system: Escherichia coli; assay: Antibacterial activity against Escherichia coli KCTC 1682 strain assessed as bacterial growth inhibition measured at 18 to 24 hrs by microdilution assay; assay type: functional; settings: time 18-24 hrs
[2] = system: Erythrocyte; assay: Hemolytic activity in sheep RBC assessed as minimal hemolytic concentration causing 10% hemolysis incubated for 1 hr by ELISA; assay type: toxicity, cell-based, Ovis aries
[3] = system: Escherichia coli; assay: Antibacterial activity against Escherichia coli KCTC 1682 strain assessed as bacterial growth inhibition measured at 18 to 24 hrs in presence of 150 mM NaCl by microdilution assay; assay type: functional; settings: time 18-24 hrs
[4] = system: Escherichia coli; assay: Antibacterial activity against Escherichia coli KCTC 1682 strain assessed as bacterial growth inhibition measured at 18 to 24 hrs in presence of 6 uM NH4Cl by microdilution assay; assay type: functional; settings: time 18-24 hrs
[5] = system: Escherichia coli; assay: Antibacterial activity against Escherichia coli KCTC 1682 strain assessed as bacterial growth inhibition measured at 18 to 24 hrs in presence of 2.5 mM CaCl2 by microdilution assay; assay type: functional; settings: time 18-24 hrs
[6] = system: Escherichia coli; assay: Antibacterial activity against Escherichia coli KCTC 1682 strain assessed as bacterial growth inhibition measured at 18 to 24 hrs in presence of 4 uM FeCl3 by microdilution assay; assay type: functional; settings: time 18-24 hrs
[7] = system: Staphylococcus aureus; assay: Antibacterial activity against Staphylococcus aureus KCTC 1621 strain assessed as bacterial growth inhibition measured at 18 to 24 hrs in presence of 1 mM MgCl2 by microdilution assay; assay type: functional; settings: time 18-24 hrs
[8] = system: Staphylococcus aureus; assay: Antibacterial activity against Staphylococcus aureus KCTC 1621 strain assessed as bacterial growth inhibition measured at 18 to 24 hrs in presence of 2.5 mM CaCl2 by microdilution assay; assay type: functional; settings: time 18-24 hrs
[9] = system: Staphylococcus aureus; assay: Antibacterial activity against methicillin-resistant Staphylococcus aureus CCARM 3095 strain assessed as bacterial growth inhibition measured at 18 to 24 hrs by microdilution assay; assay type: functional; settings: time 18-24 hrs
[10] = system: Pseudomonas aeruginosa; assay: Antibacterial activity against multidrug-resistant Pseudomonas aeruginosa CCARM 2095 strain assessed as bacterial growth inhibition measured at 18 to 24 hrs by microdilution assay; assay type: functional; settings: time 18-24 hrs
[11] = system: Pseudomonas aeruginosa; assay: Antibacterial activity against multidrug-resistant Pseudomonas aeruginosa CCARM 2109 strain assessed as bacterial growth inhibition measured at 18 to 24 hrs by microdilution assay; assay type: functional; settings: time 18-24 hrs
[12] = system: Escherichia coli; assay: Antibacterial activity against Escherichia coli KCTC 1682 strain assessed as bacterial growth inhibition measured after 6 hrs in presence of trypsin by radial diffusion assay; assay type: functional, organism-based
[13] = system: Escherichia coli; assay: Antibacterial activity against Escherichia coli KCTC 1682 strain assessed as bacterial growth inhibition measured after 6 hrs in presence of chymotrypsin by radial diffusion assay; assay type: functional, organism-based
[14] = system: Escherichia coli; assay: Antibacterial activity against Escherichia coli KCTC 1682 strain assessed as bacterial growth inhibition measured after 6 hrs in presence of pepsin by radial diffusion assay; assay type: functional, organism-based
[15] = system: Escherichia coli; assay: Antibacterial activity against Escherichia coli KCTC 1682 strain assessed as bacterial growth inhibition measured after 6 hrs in presence of proteinase K by radial diffusion assay; assay type: functional, organism-based
[16] = system: Lipopolysaccharide (LPS); assay: Binding affinity to Escherichia coli O111:B4 lipopolysaccharide assessed as suppression of FTIC labeled LPS binding to mouse RAW264.7 cells at 20 ug/ml pretreated with LPS followed by compound addition by flow cytometer assay (reference value: 67.4%); assay type: cell-based; settings: dose 20.0 µg/ml
[17] = system: Cell membrane; assay: Induction of cell membrane depolarization in Staphylococcus aureus assessed as fluorescence intensity at 2 to 16 times MIC by DiSC3(5) dye based fluorescence assay; assay type: subcellular
[18] = system: Cell membrane; assay: Induction of cell membrane depolarization in Staphylococcus aureus assessed as increase in fluorescence intensity at 2 times MIC by SYTOX green staining based analysis
[19] = system: Cell membrane; assay: Induction of inner membrane permeabilization in Escherichia coli ML-35 assessed as increase in […] at 2 times MIC by ONPG staining based analysis
[20] = system: DNA; assay: Binding affinity to plasmid DNA (unknown origin) assessed as retardation of DNA migration at 4 to 8 ug/ml incubated for 1 hr by agarose gel electrophoresis method; assay type: nucleic-acid assay; settings: dose 4-8 µg/ml
[21] = system: Pseudomonas aeruginosa; assay: Synergistic antibacterial activity against multidrug-resistant Pseudomonas aeruginosa CCARM 2095 strain assessed as oxacillin MIC by checkerboard assay; assay type: functional
[22] = system: Pseudomonas aeruginosa; assay: Synergistic antibacterial activity against multidrug-resistant Pseudomonas aeruginosa CCARM 2095 strain assessed as bacterial growth inhibition in presence of ciprofloxacin by checkerboard assay; assay type: functional
[23] = system: Pseudomonas aeruginosa; assay: Synergistic antibacterial activity against multidrug-resistant Pseudomonas aeruginosa CCARM 2095 strain assessed as ciprofloxacin fractional inhibitory concentration by checkerboard assay; assay type: functional
[24] = system: Pseudomonas aeruginosa; assay: Synergistic antibacterial activity against multidrug-resistant Pseudomonas aeruginosa CCARM 2095 strain assessed as oxacillin fractional inhibitory concentration by checkerboard assay; assay type: functional
[25] = system: Pseudomonas aeruginosa; assay: Synergistic antibacterial activity against multidrug-resistant Pseudomonas aeruginosa CCARM 2095 strain assessed as chloramphenicol fractional inhibitory concentration in presence of chloramphenicol by checkerboard assay; assay type: functional
[26] = system: Pseudomonas aeruginosa; assay: Synergistic antibacterial activity against multidrug-resistant Pseudomonas aeruginosa CCARM 2095 strain assessed as fractional inhibitory concentration index in presence of ciprofloxacin by checkerboard assay; assay type: functional
[27] = system: Staphylococcus aureus; assay: Synergistic antibacterial activity against methicillin-resistant Staphylococcus aureus CCARM 3089 strain assessed as ciprofloxacin MIC by checkerboard assay; assay type: functional
[28] = system: Staphylococcus aureus; assay: Synergistic antibacterial activity against methicillin-resistant Staphylococcus aureus CCARM 3089 strain assessed as oxacillin MIC by checkerboard assay; assay type: functional
[29] = system: Staphylococcus aureus; assay: Synergistic antibacterial activity against methicillin-resistant Staphylococcus aureus CCARM 3089 strain assessed as bacterial growth inhibition in presence of oxacillin by checkerboard assay; assay type: functional
[30] = system: Staphylococcus aureus; assay: Synergistic antibacterial activity against methicillin-resistant Staphylococcus aureus CCARM 3089 strain assessed as fractional inhibitory concentration in presence of oxacillin by checkerboard assay; assay type: functional
[31] = system: Staphylococcus aureus; assay: Synergistic antibacterial activity against multidrug-resistant Staphylococcus aureus CCARM 3089 strain assessed as fractional inhibitory concentration index in presence of oxacillin by checkerboard assay; assay type: functional
[32] = system: Pseudomonas aeruginosa; assay: Antibiofilm activity against multidrug-resistant Pseudomonas aeruginosa assessed as inhibition of biofilm formation; assay type: functional
[33] = system: RAW264.7; assay: Antiinflammatory activity in LPS-induced mouse RAW264.7 cells assessed as reduction in TNF alpha level at 20 ug/ml measured after 72 hrs by ELISA assay relative to control; assay type: functional
[34] = system: RAW264.7; assay: Antiinflammatory activity in LPS-induced mouse RAW264.7 cells assessed as reduction in iNOS mRNA expression level at 5 ug/ml measured after 18 hrs by RT-PCR assay relative to control; assay type: functional, cell-based; settings: dose 5.0 µg/ml
[35] = system: Staphylococcus aureus; assay: Additive antibacterial activity against methicillin-resistant Staphylococcus aureus CCARM 3089 strain assessed as bacterial growth inhibition in presence of chloramphenicol by checkerboard assay; assay type: functional
[36] = system: Staphylococcus aureus; assay: Additive antibacterial activity against multidrug-resistant Staphylococcus aureus CCARM 3089 strain assessed as fractional inhibitory concentration index in presence of chloramphenicol by checkerboard assay; assay type: functional
[37] = system: RAW264.7; assay: Antiinflammatory activity in LPS-induced mouse RAW264.7 cells assessed as reduction in NO production at 5 ug/ml measured after 72 hrs by ELISA assay relative to control; assay type: functional

Structure (SMILES)	MIC [1] [µM]	MHC [2] [µM]	MIC [3] [µM]	MIC [4] [µM]	MIC [5] [µM]	MIC [6] [µM]	MIC [7] [µM]	MIC [8] [µM]	MIC [9] [µM]	MIC [10] [µM]	MIC [11] [µM]	Activity [12]	Activity [13]	Activity [14]	Activity [15]	Flu intensity [16] [%]	Activity [17]	Activity [18]	Activity [19]	Activity [20]	also measured
NCCN(CCN)c1nc(NCc2ccccc2)nc(N2CC(Cc3ccccc3)N(c3nc(NCc4ccccc4)nc(N(CCN)CCN)n3)CC2Cc2ccccc2)n1 (stereo not drawn)	5.4 (≈ 4.52 µg/mL)	> 342.5	5.4	5.4	5.4	10.8	5.4	5.4	5.4 (≈ 4.52 µg/mL)	21.4 (≈ 17.9 µg/mL)	10.7 (≈ 8.96 µg/mL)	Active	Active	Active	Active	8	inactive	inactive	inactive	Active	MIC [21]: 128 µg/mL; MIC [22]: 2 µg/mL; FIC [23]: 0.25; FIC [24]: 0.125; FIC [25]: 0.25; fractional inhibitory concentration index (FICI) [26]: 0.375; MIC [27]: 64 µg/mL; MIC [28]: 256 µg/mL; MIC [29]: 1 µg/mL; FIC [30]: 0.25; fractional inhibitory concentration index (FICI) [31]: 0.5; MBEC50 [32]: 10.4 µM; MBEC90 [32]: 10.4 µM; MBIC [32]: 5.2 µM; MBIC50 [32]: 1.3 µM; inhibition at 20 µg/mL [33]: 95.6%; Activity [34]: Active
NCCCCNc1nc(NCCCCN)nc(N2CC(Cc3ccccc3)N(c3nc(NCCCCN)nc(NCCCCN)n3)CC2Cc2ccccc2)n1 (stereo not drawn)	10.4 (≈ 8 µg/mL)	> 332.8	10.4	10.4	10.4	10.4	5.2	10.4	10.4 (≈ 8 µg/mL)	41.6 (≈ 32 µg/mL)	10.4 (≈ 8 µg/mL)	Active	Active	Active	Active	19.5	inactive	inactive	inactive	Active	MIC [21]: 256 µg/mL; MIC [22]: 8 µg/mL; FIC [23]: 0.125; FIC [24]: 0.25; FIC [25]: 0.25; fractional inhibitory concentration index (FICI) [26]: 0.375; MIC [27]: 64 µg/mL; MIC [28]: 256 µg/mL; MIC [35]: 2 µg/mL; MIC [29]: 1 µg/mL; FIC [30]: 0.25; fractional inhibitory concentration index (FICI) [36]: 0.625; fractional inhibitory concentration index (FICI) [31]: 0.5; inhibition at 5 µg/mL [37]: 72.6%; inhibition at 20 µg/mL [33]: 97.2%; Activity [34]: Active
N=C(N)NCCNc1nc(NCCNC(=N)N)nc(N2CC(Cc3ccccc3)N(c3nc(NCCNC(=N)N)nc(NCCNC(=N)N)n3)CC2Cc2ccccc2)n1 (stereo not drawn)	17.7 (≈ 14.6 µg/mL)	> 309.8	9.7	9.7	9.7	19.4	9.6	9.6	9.7 (≈ 8 µg/mL)	19.4 (≈ 16 µg/mL)	19.4 (≈ 16 µg/mL)	Active	Active	Active	Active	21.1	inactive	inactive	inactive	Active	MIC [35]: 4 µg/mL; fractional inhibitory concentration index (FICI) [36]: 0.75; inhibition at 5 µg/mL [37]: 68.1%; inhibition at 20 µg/mL [33]: 99.8%; Activity [34]: Active
